Laboratory results published in patent publication US20200179380A1, “SOLUTE AND SOLUTE MIXTURE, AS WELL AS A COMPOSITION COMPRISING AT LEAST ONE SOLUTE, FOR USE IN THE PREVENTION OR TREATMENT OF COSMETIC OR PATHOLOGIC EFFLORESCENCES CAUSED BY AIRBORNE PARTICLES” (bitop AG, priority 2014, published 2020).
Several values for one entry are separate records, joined by “and”; a condition that tells them apart may be missing. Equal entries are not always repeated. Where two headings read alike, the source gives them in different places.

Assays:
Assay type in all cases: cell-based, human
[1] = test system: MMP1 gene; assay: MMP1 gene expression (real-time PCR, relative to 18s-rRNA) in keratinocytes exposed to model particles; conditions: for inhibition at 2000 µM / activity at 2000 µM: Homo sapiens, Keratinocyte, 2 mM S-ectoine; for activity at 2000 µM: read-out: MMP1 Remaining activity %; for MMP1 expression ±S-ectoine mean ± SD: 24 h pretreatment with 2 mM S-ectoine, untreated = 1
Description: The model particles were suspended in phosphate buffered saline solution and treated with ultrasound for 1 minute ([…]90, SRM1650 and SRM2975) or 90 seconds (Huber990). Subsequently, addition to keratinocytes was done immediately. […] The incubation time of keratinocytes under the influence of model particles was 24 hours. Human epidermal keratinocytes were taken from healthy patients during abdominoplasty or breast reduction with the consent of the patients. The tissue donors originate in Asia or were of Caucasian origin. The keratinocytes isolated from the tissues were cultivated in Keratinocyte-SFM (Gibco®, Life Technologies GmbH, Darmstadt, Germany). The medium was enriched by 5 mg/L of human recombinant epidermal growth factor (EGF), 50 mg/L pituitarium which is an extract from pituitary gland from bovine (Bovine Pituitary Extract, BPE), 1% L-glutamine, 1% streptomycin/amphotericin B (Invitrogen, Karlsruhe, Germany). The cultivation was done at humid atmosphere in the presence of 5% CO2. Subconfluent keratinocytes were transferred to sample vessels having 12 sample wells (12-well plates), and were each cultivated in the sample wells. Treatment with the model particles was also done in the sample wells. […] After an incubation time of 24 hours in the presence of the model particles, RNA was isolated from the keratinocytes and relative RNA content was determined. The expression of proinflammatory gene ICAM-1, POMC gene encoding for proopiomelanocortin, MMP1 gene encoding for a human collagenase, and Cyp1a1 encoding for a phase-I-enzyme of Cytochrome P450 superfamily was investigated as a marker for the influence of the model particles on skin condition. The collagenase encoded by MMP1 gene ranks among the matrix metalloproteases and cleaves the peptide bond between proline and other amino acids of collagen I, II, III, VII and X, thereby degrading the collagen. Collagenases and, in particular, the MMP1 collagenase are involved in tissue remodeling and biological processes of the skin, such ach morphogenesis or tumor growth (benign or malign tumor formation). Thus, increased expression of MMP1 gene is a proof for increased activity of the skin cells, in particular keratinocytes. Increased MMP1 gene expression can be an indication of excessive cell growth and, thereby, of benign or malign carcinogenesis. The total RNA content was determined according to […] et al. ([…]-Beck […], Brenden H, […]. “Bioactive molecules from the Blue Lagoon: in vitro and in vivo assessment of silica mud and microalgae extracts for their effects on skin barrier function and prevention of skin ageing”. Exp Dermatol 2008 17:771.). For this purpose, the total RNA was isolated using RNeasy Total RNA Kits (Qiagen, Hilden; Germany). The RNA concentration was photometrically determined at 260/280 nm (Biophotometer, Eppendorf, Hamburg, Germany). Aliquots of total RNA of 100 ng were used for first strand cDNA synthesis using Superscript® III for the transcription step using random primers (Invitrogen, Karlsruhe, Germany). […] For the total RNA content a specific primer for the proof of 18s rRNA was designed. Independent experiments were performed with a triple determination in each case, and the mean was determined. PCR reaction was done using CFX384 TouchTM Real-Time PCR Detection System (Bio-Rad, München, Germany). In order to fluorescent marking SybrGreen-Mix was used (Thermo Fisher Scientific, St. Leon-Rot, Germany). For each experiment three samples, respectively, were determined in duplicate, and the mean was determined. The PCR protocol comprised 46 cycles, each cycle 15 minutes at 94° C. (activation of heat-activating taq polymerase) 10 seconds at 95° C. (denaturation), 20 seconds at 55° C. (annealing), 20 seconds at 72° C. (elongation). Likewise, for comparison of relative expression the expression of untreated keratinocytes was investigated. […] Methods 25: 402-408). […] The data underlying the statistical analysis are not shown here.

[2] = test system: Cyp1a1 gene; assay: Cyp1a1 gene expression (real-time PCR, relative to 18s-rRNA) in keratinocytes exposed to model particles; conditions: for inhibition at 2000 µM / activity at 2000 µM: Homo sapiens, Keratinocyte, 2 mM S-ectoine; for activity at 2000 µM: read-out: Cyp1a1 Remaining activity %
Description: The model particles were suspended in phosphate buffered saline solution and treated with ultrasound for 1 minute ([…]90, SRM1650 and SRM2975) or 90 seconds (Huber990). Subsequently, addition to keratinocytes was done immediately. […] The incubation time of keratinocytes under the influence of model particles was 24 hours. Human epidermal keratinocytes were taken from healthy patients during abdominoplasty or breast reduction with the consent of the patients. The tissue donors originate in Asia or were of Caucasian origin. The keratinocytes isolated from the tissues were cultivated in Keratinocyte-SFM (Gibco®, Life Technologies GmbH, Darmstadt, Germany). The medium was enriched by 5 mg/L of human recombinant epidermal growth factor (EGF), 50 mg/L pituitarium which is an extract from pituitary gland from bovine (Bovine Pituitary Extract, BPE), 1% L-glutamine, 1% streptomycin/amphotericin B (Invitrogen, Karlsruhe, Germany). The cultivation was done at humid atmosphere in the presence of 5% CO2. Subconfluent keratinocytes were transferred to sample vessels having 12 sample wells (12-well plates), and were each cultivated in the sample wells. Treatment with the model particles was also done in the sample wells. […] After an incubation time of 24 hours in the presence of the model particles, RNA was isolated from the keratinocytes and relative RNA content was determined. The expression of proinflammatory gene ICAM-1, POMC gene encoding for proopiomelanocortin, MMP1 gene encoding for a human collagenase, and Cyp1a1 encoding for a phase-I-enzyme of Cytochrome P450 superfamily was investigated as a marker for the influence of the model particles on skin condition. The enzyme encoded by Cyp1a1 gene ranks among the group of phase-I-P450-Cytochrome enzymes and mediates metabolism of drugs, foreign substances and environmental toxins. The Cy1a1 enzyme is a monooxygenase and responsible for metabolizing the afore-mentioned compounds. The protein is encoded in endoplasmic reticulum and its expression can severely be induced by polycyclic aromatic hydrocarbons. The enzyme encoded by Cyp1a1 metabolizes environmental noxae, in particular polycyclic aromatic hydrocarbons, into cancer-causing intermediates. Cyp1a2 is a family member related to Cyp1a1. Increased Cyp1a1 expression, and, in particular, increased Cyp1a2 expression, thus proves detoxification reaction. The total RNA content was determined according to […] et al. ([…]-Beck […], Brenden H, […]. “Bioactive molecules from the Blue Lagoon: in vitro and in vivo assessment of silica mud and microalgae extracts for their effects on skin barrier function and prevention of skin ageing”. Exp Dermatol 2008 17:771.). For this purpose, the total RNA was isolated using RNeasy Total RNA Kits (Qiagen, Hilden; Germany). The RNA concentration was photometrically determined at 260/280 nm (Biophotometer, Eppendorf, Hamburg, Germany). Aliquots of total RNA of 100 ng were used for first strand cDNA synthesis using Superscript® III for the transcription step using random primers (Invitrogen, Karlsruhe, Germany). […] For the total RNA content a specific primer for the proof of 18s rRNA was designed. Independent experiments were performed with a triple determination in each case, and the mean was determined. PCR reaction was done using CFX384 TouchTM Real-Time PCR Detection System (Bio-Rad, München, Germany). In order to fluorescent marking SybrGreen-Mix was used (Thermo Fisher Scientific, St. Leon-Rot, Germany). For each experiment three samples, respectively, were determined in duplicate, and the mean was determined. […] (activation of heat-activating taq polymerase) 10 seconds at 95° C. (denaturation), 20 seconds at 55° C. (annealing), 20 seconds at 72° C. (elongation). Likewise, for comparison of relative expression the expression of untreated keratinocytes was investigated. […] Methods 25: 402-408). […] The data underlying the statistical analysis are not shown here.

[3] = test system: POMC gene; assay: POMC gene expression (real-time PCR, relative to 18s-rRNA) in keratinocytes exposed to model particles; conditions: for inhibition at 2000 µM / activity at 2000 µM: Homo sapiens, Keratinocyte, 2 mM S-ectoine; for activity at 2000 µM: read-out: POMC Remaining activity %; for POMC expression ±S-ectoine mean ± SD: 24 h pretreatment with 2 mM S-ectoine, untreated = 1; for POMC expression induced by model particles after ectoine pretreatment (in words): Printex90, Huber 990, SRM1650, SRM2975, pretreatment with 2 mM ectoine for 24 hours
[4] = Printex90, Huber 990, SRM1650, SRM2975, pretreatment with 2 mM ectoine

Cyp1a1 expression induced by model particles after ectoine pretreatment (in words) [2, 4]: inhibited
Cyp1a1 expression ±S-ectoine mean ± SD ([2]; Printex90 particles, 24 h pretreatment with 2 mM S-ectoine, untreated = 1): 1.19 and 1.19 ± 0.29
SMILES: CC1=N[C@H](C(=O)O)CCN1 [S-ectoine, (S)-1,4,5,6-tetrahydro-2-methyl-4-pyrimidine carboxylic acid]
inhibition at 2000 µM ([1]; Huber990 particles): 42%
activity at 2000 µM ([1]; Huber990 particles): 58%
inhibition at 2000 µM ([1]; SRM1650 particles): 26%
activity at 2000 µM ([1]; SRM1650 particles): 74%
MMP1 expression induced by model particles after ectoine pretreatment (in words) [1, 4]: inhibited
MMP1 expression ±S-ectoine mean ± SD ([1]; Printex90 particles): 0.82 ± 0.10
MMP1 expression ±S-ectoine mean ± SD ([1]; SRM2975 particles): 1.28 ± 0.22
inhibition at 2000 µM ([2]; Huber990 particles): 57%
activity at 2000 µM ([2]; Huber990 particles): 43%
inhibition at 2000 µM ([2]; Printex90 particles): 70%
activity at 2000 µM ([2]; Printex90 particles): 30%
inhibition at 2000 µM ([2]; SRM1650 particles): 46%
activity at 2000 µM ([2]; SRM1650 particles): 54%
inhibition at 2000 µM ([2]; SRM2975 particles): 41%
activity at 2000 µM ([2]; SRM2975 particles): 59%
inhibition at 2000 µM ([3]; Huber990 particles): 100%
activity at 2000 µM ([3]; Huber990 particles): 0%
inhibition at 2000 µM ([3]; Printex90 particles): 100%
activity at 2000 µM ([3]; Printex90 particles): 0%
inhibition at 2000 µM ([3]; SRM1650 particles): 99%
activity at 2000 µM ([3]; SRM1650 particles): 1%
inhibition at 2000 µM ([3]; SRM2975 particles): 100%
activity at 2000 µM ([3]; SRM2975 particles): 0%
POMC expression ±S-ectoine mean ± SD ([3]; Huber990 particles): 0.83 ± 0.04+
POMC expression induced by model particles after ectoine pretreatment (in words) [3]: significant inhibition
POMC expression induced by model particles after ectoine pretreatment (in words) ([3]; listed as ectoine): inhibited
POMC expression ±S-ectoine mean ± SD ([3]; Printex90 particles): 0.88 ± 0.05+
POMC expression ±S-ectoine mean ± SD ([3]; SRM1650 particles): 1.01 ± 0.05+
POMC expression ±S-ectoine mean ± SD ([3]; SRM2975 particles): 0.99 ± 0.08+
